{"source": "patent US20130281526A1", "about": "“METHOD FOR TREATING IRRITABLE BOWEL SYNDROME WITH DIARRHEA” (SUCAMPO AG, priority 2012, published 2013)", "key": {"[1]": {"system": "patients with irritable bowel syndrome with diarrhea", "test": "Weekly responder rate for relief of IBS symptoms (7-point balanced scale) in patients", "type": "in vivo, human", "settings": "16 mcg per day, responder = moderately or significantly relieved", "text": "The patients who had 25% or more loose or very loose stools during the baseline were enrolled as a patient with irritable bowel syndrome with diarrhea. The patients received placebo or lubiprostone 16 mcg per day."}, "[2]": {"system": "patients with irritable bowel syndrome with diarrhea", "test": "Subject symptom assessments, change from baseline after 12 weeks treatment", "type": "in vivo, human", "settings": "16 mcg per day for 12 weeks", "experimental": "The patients with irritable bowel syndrome with diarrhea defined in Example 1 received luboiprostone 16 mcg per day for 12 weeks.\nThe assessments were conducted by the following criterias.\nSubject Evaluation of Abdominal Bloating: 0=Absent, 1=Mild, 2=Moderate, 3=Severe, and 4=Very Severe Subject Evaluation of Abdominal. Discomfort/Pain: 0=Absent, 1=Mild, 2=Moderate, 3=Severe, and 4=Very Severe Subject Evaluation of Constipation Severity: 0= Absent, 1=Mild, 2=Moderate, 3=Severe, and 4=Very Severe BM Frequency=(7×Number of BMs)/(Number of days) Subject Evaluation of Bowel Straining: 0=Absent, 1=Mild, 2=Moderate, 3=Severe, and 4=Very Severe"}}}
{"compound": "CCCCC(F)(F)[C@@]1(O)CC[C@H]2[C@@H](CC(=O)[C@@H]2CCCCCCC(=O)O)O1", "note": "[lubiprostone, (−)-7-[(2R, 4aR, 5R, 7aR)-2-(1,1-difluoropentyl)-2-hydroxy-6-oxooctahydrocyclopenta[b]pyran-5-yl]heptancoic acid]", "values": [{"measurement": "Weekly Responder Rate", "setting": "[1]; Week 2", "result": 33.8, "unit": "%"}, {"measurement": "Weekly Responder Rate", "setting": "[1]; Week 3", "result": 34.9, "unit": "%"}, {"measurement": "Weekly Responder Rate", "setting": "[1]; Week 4", "result": 34.7, "unit": "%"}, {"measurement": "BM Frequency, change from the baseline after the treatment", "setting": "[2]; BM Frequency=(7×Number of BMs)/(Number of days), baseline 3.64", "result": 0.36}, {"measurement": "Abdominal Discomfort/Pain, change from the baseline after the treatment", "setting": "[2]; score 0=Absent to 4=Very Severe, baseline 2.80", "result": "−1.08"}, {"measurement": "Constipation Severity, change from the baseline after the treatment", "setting": "[2]; score 0=Absent to 4=Very Severe, baseline 3.16", "result": "−1.31"}, {"measurement": "Abdominal Bloating, change from the baseline after the treatment", "setting": "[2]; score 0=Absent to 4=Very Severe, baseline 3.28", "result": "−1.37"}, {"measurement": "Bowel Straining, change from the baseline after the treatment", "setting": "[2]; score 0=Absent to 4=Very Severe, baseline 4.00", "result": "−2.00"}]}
